± gives the expanded uncertainty stated by the source.
Settings: Crystal; visual observation

## O=[N+]([O-])/N=C1\NCCN1Cc1ccc(Cl)nc1 [imidacloprid]
  Normal melting temperature: 144.00 ± 0.68 °C

Source: the NIST ThermoML archive (doi:10.1021/je7004038)
